Data on 10 compounds can be found in ChEMBL document CHEMBL4177563, “The medicinal chemistry of Chikungunya virus” (Bioorg Med Chem, 2017).

Molecules are shown by their SMILES. Bounds are passed on as bounds.

The subject of data set [1] is Chikungunya virus. Nature of the data set: Antiviral activity against Chikungunya virus C347 infected in African green monkey Vero cells assessed as inhibition of viral-induced cytopathic effect after 2 days by microscopic analysis. The format is functional, organism-based. The conditions noted are these: 48 h.
Data set [2] can be described thus: Selectivity index, ratio of CC50 for human Huh7.5 cells to EC50 for Chikungunya virus. Type of data set: toxicity. The settings on record: read-out: Ratio CC50/EC50.
Data set [3] concerns Chikungunya virus. In words: Antiviral activity against Chikungunya virus LR2006-OPY1 infected in human Huh7.5 cells after 48 hrs by luciferase reporter gene assay. Type of data set: functional, organism-based. The conditions noted are these: LR2006-OPY1, Huh7.5, 48 h. A general note: Reporter assays use an easily measured gene product as a stand-in for the process of interest.

The nature of data set [4]: Cytotoxicity against human Huh7.5 cells in presence of ATP by Celltiter-Glo assay. Type of data set: cell-based. For orientation: ATP-based viability assays read luminescence as a measure of living cells.
Data set [5] relates to Chikungunya virus. In words: Antiviral activity against Chikungunya virus at 0.006 to 300 uM by cell based luciferase reporter gene assay relative to control. Type of data set: functional.
Data set [6] deals with Chikungunya virus. In words: Antiviral activity against Chikungunya virus LR2006-OPY1 infected in BHK21 cells after 48 hrs by luciferase reporter gene assay. The format is functional, organism-based. The settings on record: LR2006-OPY1, BHK-21, 48 h.
Data set [7] can be described thus: Cytotoxicity against BHK21 cells in presence of ATP by Celltiter-Glo assay. The conditions noted are these: hamster, BHK-21 cells. The format is cell-based, Mesocricetus auratus.
Data set [8] can be described thus: Selectivity index, ratio of CC50 for BHK21 cells to EC50 for Chikungunya virus. The format is toxicity. The conditions noted are these: hamster, BHK-21 cells; read-out: Ratio CC50/EC50.
Data set [9] deals with Chikungunya virus. In words: Antiviral activity against Chikungunya virus infected in BHK21 cells assessed as reduction in plague formation at 1 uM after 24 hrs relative to control. Type of data set: functional. The conditions noted are these: BHK-21, 24 h.
Data set [10] relates to Chikungunya virus. Nature of the data set: Antiviral activity against Chikungunya virus venturini isolate (Italy 2008) infected in African green monkey Vero-A cells assessed as inhibition of viral-induced cytopathic effect measured on day 7 post infection by MTS/PMS assay. Type of data set: functional, organism-based. The settings on record: 168 h. (Protection from cytopathic effect is a common read-out in antiviral testing.)

Data set [11] relates to Chikungunya virus. In words: Antiviral activity against Chikungunya virus LR2006-OPY1 infected in African green monkey Vero-A cells assessed as inhibition of viral-induced cytopathic effect measured on day 7 post infection by MTS/PMS assay. The conditions noted are these: LR2006-OPY1, 168 h. Type of data set: functional, organism-based.
Data set [12] relates to Chikungunya virus. In words: Antiviral activity against Chikungunya virus 899 infected in African green monkey Vero-A cells assessed as inhibition of viral-induced cytopathic effect measured on day 7 post infection by MTS/PMS assay. The format is functional, organism-based. The conditions noted are these: Chikungunya virus, 899, 168 h.
The test system of data set [13] is Chikungunya virus. Nature of the data set: Antiviral activity against Chikungunya virus S-27 assessed as viral titer interferon loading. The format is functional.
Data set [14] is described as follows: Selectivity index, ratio of CC50 for African green monkey Vero cells to IC50 for Chikungunya virus DRDE-06. The settings on record: read-out: Ratio CC50/IC50. The format is toxicity.
Data set [15] is described as follows: Cytotoxicity against African green monkey Vero cells by neutral red dye uptake assay. Type of data set: cell-based. The settings on record: chlorocebus sabaeus.
Data set [16] relates to Chikungunya virus. In words: Antiviral activity against Chikungunya virus isolate DRDE-06 infected in African green monkey Vero cells by neutral red dye uptake assay. The format is functional, organism-based. The settings on record: isolate DRDE-06, Vero.
Data set [17] in a line: Selectivity index, ratio of CC50 for human U2OS cells to EC50 for Chikungunya virus. Type of data set: toxicity. The conditions noted are these: read-out: Ratio CC50/EC50.
The subject of data set [18] is Chikungunya virus. In words: Antiviral activity against Chikungunya virus infected in human U2OS cells by RT-qPCR analysis. Type of data set: functional, organism-based.
Data set [19] in a line: Selectivity index, ratio of CC50 for BHK-21 cells to EC50 for Chikungunya virus 0810bTw. The format is toxicity. The settings on record: hamster, read-out: Ratio CC50/EC50.
Data set [20] has as its system Chikungunya virus. Nature of the data set: Antiviral activity against Chikungunya virus infected in BHK-21 cells by RT-qPCR analysis. The format is functional, organism-based.
The nature of data set [21]: Cytotoxicity against BHK21 cells assessed as reduction in cell viability after 16 hrs by CCK-8 assay. Type of data set: cell-based, Mesocricetus auratus. The settings on record: hamster, BHK-21 cells.
Data set [22] in a line: Selectivity index, ratio of CC50 for BHK-21 cells to EC50 for Chikungunya virus 0611aTw. Type of data set: toxicity. The settings on record: hamster, read-out: Ratio CC50/EC50.
Data set [23] concerns Chikungunya virus. Nature of the data set: Antiviral activity against Chikungunya virus 0611aTw infected in BHK-21 cells by RT-qPCR analysis. The format is functional, organism-based.
In data set [24] the test system is Chikungunya virus. In words: Antiviral activity against Chikungunya virus 0810bTw infected in BHK-21 cells by RT-qPCR analysis. The format is functional, organism-based.
Data set [25] is described as follows: Selectivity index, ratio of CC50 for BHK-21 cells to EC50 for Chikungunya virus. Type of data set: toxicity. The settings on record: hamster, read-out: Ratio CC50/EC50.
Data set [26] is described as follows: Cytotoxicity against human U2OS cells assessed as reduction in cell viability after 16 hrs by CCK-8 assay. The format is cell-based.
A short description of data set [27]: Cytotoxicity against African green monkey Vero cells assessed as reduction in cell viability after 4 days by MTT assay. The settings on record: chlorocebus sabaeus. The format is cell-based.
Data set [28] can be described thus: Selectivity index, ratio of CC50 for African green monkey Vero cells to IC50 for Chikungunya virus KC969207. Type of data set: toxicity. The settings on record: read-out: Ratio CC50/IC50.
Data set [29] has as its system Chikungunya virus. Nature of the data set: Antiviral activity against Chikungunya virus KC969207 infected in African green monkey Vero cells after 48 hrs by MTT dye-based assay. The format is functional, organism-based.

On to `O=c1cnn([C@@H]2O[C@H](CO)[C@@H](O)[C@H]2O)c(=O)[nH]1` [6-AZAURIDINE], for which, in the data set with Chikungunya virus [1], the EC50 (in general, the concentration needed to bring the measured effect to its halfway point) is 0.82 µM.

Turning to `COc1ccc2cc3[n+](cc2c1OC)CCc1cc2c(cc1-3)OCO2` [BERBERINE], the selectivity ratio in data set [2] is over 52.6; in data set [8], over 55.6. Besides, the figures for the EC50 in the data set with Chikungunya virus [3] and in the data set on Chikungunya virus [6] were 1.9 µM and 1.8 µM, respectively. For the same compound, the CC50 in data set [4] and in data set [7] was over 100 µM in each case. In the data set on Chikungunya virus [5], this compound had an Activity of over 85%.

Consider `C[C@H]1O[C@@H](O[C@H]2CC[C@@]3(C)[C@H](CC[C@@H]4[C@@H]3C[C@@H](O)[C@]3(C)[C@@H](C5=CC(=O)OC5)CC[C@]43O)C2)C[C@H](O)[C@@H]1O[C@H]1C[C@H](O)[C@H](O[C@H]2C[C@H](O)[C@H](O[C@@H]3O[C@H](CO)[C@@H](O)[C@H](O)[C@H]3O)[C@@H](C)O2)[C@@H](C)O1` [DESLANOSIDE], for which, in the data set with Chikungunya virus [9], the inhibition (in general, the share of the control response that was lost under treatment) at 1 µM was determined as 38.7%.

Consider `NC(=O)c1nc(F)cnc1O` [FAVIPIRAVIR], for which the EC50 amounted to 16 µM with Chikungunya virus [10], 25 µM in the data set on Chikungunya virus [11] and 25 µM in the data set with Chikungunya virus [12].

Consider `CC1=C(/C=C/C(C)=C/C=C/C(C)=C/C(=O)Nc2ccc(O)cc2)C(C)(C)CCC1` [FENRETINIDE], for which the values for the selectivity ratio in data set [2] and in data set [8] were 29.9 and 10.3, respectively. Besides, the EC50 in the data set with Chikungunya virus [3] was found to be 0.5 µM; in the data set on Chikungunya virus [6], 3.1 µM. Further, the half-maximal cytotoxic concentration (CC50) (as a rule, the concentration that lowers cell viability or growth by half) in data set [4] was 15.6 µM; in [7], 31.5 µM. In the data set with Chikungunya virus [5], the Activity worked out at 65%.

Consider `Sc1ncnc2nc[nH]c12` [MERCAPTOPURINE ANHYDROUS], for which the Activity in the data set on Chikungunya virus [13] is on record as 47 - 67 U/ml.

Turning to `COc1c(C)c2c(c(O)c1C/C=C(\C)CCC(=O)O)C(=O)OC2` [MYCOPHENOLIC ACID], the selectivity ratio in data set [14] stood at 300. The CC50 in [15] was found to be 30 µM. For the same compound, in the data set with Chikungunya virus [16], half-maximal inhibition (IC50) was put at 0.1 µM.

`O=C(Nc1ccc([N+](=O)[O-])cc1Cl)c1cc(Cl)ccc1O` [NICLOSAMIDE]: the selectivity ratio is over 55.5 in data set [17], over 22.2 in data set [19], over 23.5 in data set [22] and over 21 in data set [25]. The EC50 is 0.36 µM in the data set with Chikungunya virus [18], 0.95 µM with Chikungunya virus [20], 0.85 µM in the data set on Chikungunya virus [23] and 0.9 µM with Chikungunya virus [24]. Besides, the CC50 at 16 h in data set [21] and in data set [26] was over 20 µM each time.

On to `CC(=O)Oc1ccccc1C(=O)Nc1ncc([N+](=O)[O-])s1` [NITAZOXANIDE], for which the selectivity ratio was found to be 8.31 in data set [17], 5.05 in data set [19], 12.8 in data set [22] and 8.45 in data set [25]. Moreover, the EC50 in the data set on Chikungunya virus [18] worked out at 3.01 µM; in the data set on Chikungunya virus [20], 2.96 µM; in the data set with Chikungunya virus [23], 1.96 µM; with Chikungunya virus [24], 4.95 µM. Further, the half-maximal cytotoxic concentration (CC50) at 16 h in data set [21] and in data set [26] was 25 µM in each case.

Regarding `NC(=O)c1ncn([C@@H]2O[C@H](CO)[C@@H](O)[C@H]2O)n1` [RIBAVIRIN], in data set [27], the half-maximal cytotoxic concentration (CC50) at 96 h turned out to be 1620 µM. Also, the concentration giving a half-maximal response (EC50) in the data set on Chikungunya virus [1] came out at 341 µM. Besides, the selectivity ratio in [28] turned out to be 529. Besides, it took 3.06 µM to reach half-maximal inhibition in the data set with Chikungunya virus [29] (IC50).
